In ChEMBL document CHEMBL5050833, “Novel cyclic trex1 inhibitors” (2020):

Key:
[1] = Inhibition of mouse TREX1 exonuclease activity using labeled DNA oligonucleotide as substrate incubated for 30 mins and measured after 45 mins by fluorescence assay
[2] = Inhibition of human TREX1 exonuclease activity using labeled DNA oligonucleotide as substrate incubated for 30 mins and measured after 45 mins by fluorescence assay

SMILES | IC50 [1] | IC50 [2]
N[C@@H]1C[C@H]2C(=O)N([C@H](CCC(=O)O)C(=O)NCc3ccc(Cl)c(Cl)c3)CCC(CCc3ccccc3)N2C1 (stereo in doubt; form 1) | in the range around 10000 nM | in the range around 10000 nM
N[C@@H]1C[C@H]2C(=O)N([C@H](CCc3nsc(=O)[nH]3)C(=O)NCc3ccc(Cl)c(Cl)c3)CCC(CCc3ccccc3)N2C1 (stereo not given in full) | < 1000 nM | < 1000 nM
CC(C)C[C@H](C(=O)NCc1ccc(Cl)c(Cl)c1)N1CC(CCc2ccccc2)N2C[C@H](N)C[C@H]2C1=O (stereo not given in full) | in the range around 10000 nM | in the range around 10000 nM
C[C@H](C(=O)NCc1ccc(C(F)(F)F)cc1)N1CCC(CCc2ccccc2)N2C[C@H](N)C[C@H]2C1=O (stereo not given in full) | < 1000 nM | < 1000 nM
CC(C)C[C@H](CNC(=O)c1ccc(Cl)cc1)N1CCC(CCc2ccccc2)N2C[C@H](N)C[C@H]2C1=O (stereo not given in full) | in the range around 1000 nM | in the range around 1000 nM
CC(C)C[C@H](C(=O)N(C)Cc1ccc(C(F)(F)F)cc1)N1CCC(CCc2ccccc2)N2C[C@H](N)C[C@H]2C1=O (stereo not given in full) | in the range around 1000 nM | in the range around 1000 nM
N[C@@H]1C[C@H]2C(=O)N([C@H](CCC(=O)O)C(=O)NCc3ccc(C(F)(F)F)cc3)CCC(CCc3ccccc3)N2C1 (stereo in doubt; form 2) | < 1000 nM | < 1000 nM
CC(C)C[C@H](C(=O)NCc1ccc(Cl)c(Cl)c1)N1CCC(CCc2ccc(Cl)cc2)N2C[C@H](N)C[C@H]2C1=O (stereo not given in full) | in the range around 1000 nM | < 1000 nM
CC(C)C[C@H](C(=O)NCCc1ccccc1)N1CCC(CCc2ccccc2)N2C[C@H](N)C[C@H]2C1=O (stereo not given in full) | in the range around 10000 nM | in the range around 1000 nM
CCC[C@H](C(=O)NS(=O)(=O)c1ccc(Cl)c(Cl)c1)N1CCC(CCc2ccccc2)N2C[C@H](N)C[C@H]2C1=O (stereo not given in full) | in the range around 1000 nM | < 1000 nM
CC(C)C[C@H](C(=O)NCc1cncs1)N1CCC(CCc2ccccc2)N2C[C@H](N)C[C@H]2C1=O (stereo not given in full) | in the range around 10000 nM | in the range around 1000 nM
N#CCC[C@H](C(=O)NCc1ccc(Cl)c(Cl)c1)N1CCC(CCc2ccccc2)N2C[C@H](N)C[C@H]2C1=O (stereo not given in full) | < 1000 nM | < 1000 nM
CC(C)C[C@H](C(=O)NCc1ccc(Cl)c(Cl)c1)N1CCC(Cc2ccccc2)N2C[C@H](N)C[C@H]2C1=O (stereo not given in full) | in the range around 1000 nM | in the range around 1000 nM

Continued, values first:

IC50 [1] | IC50 [2] | SMILES
in the range around 1000 nM | < 1000 nM | CC(C)C[C@H](C(=O)NCc1ccc(Cl)cc1Cl)N1CCC(CCc2ccccc2)N2C[C@H](N)C[C@H]2C1=O (stereo not given in full)
in the range around 10000 nM | in the range around 1000 nM | CC(C)C[C@H](C(=O)NCc1cscn1)N1CCC(CCc2ccccc2)N2C[C@H](N)C[C@H]2C1=O (stereo not given in full)
in the range around 1000 nM | < 1000 nM | CC(C)C[C@H](C(=O)NCc1cc(Cl)cc(Cl)c1)N1CCC(CCc2ccccc2)N2C[C@H](N)C[C@H]2C1=O (stereo not given in full)
in the range around 10000 nM | in the range around 10000 nM | CC(C)C[C@H](C(=O)NCC1CCCCC1)N1CCC(CCc2ccccc2)N2C[C@H](N)C[C@H]2C1=O (stereo not given in full)
< 1000 nM | < 1000 nM | N[C@@H]1C[C@H]2C(=O)N([C@H](CCC(=O)O)C(=O)NCc3ccc(Cl)c(Cl)c3)CCC(CCc3ccccc3)N2C1 (stereo in doubt; form 2)
in the range around 10000 nM | in the range around 1000 nM | CC(C)C[C@H](C(=O)NCc1ccc(Cl)cc1)N1CCC(CS(=O)(=O)c2ccccc2)N2C[C@H](N)C[C@H]2C1=O (stereo not given in full)
in the range around 10000 nM | in the range around 1000 nM | CC(C)C[C@H](C(=O)NCc1cnccn1)N1CCC(CCc2ccccc2)N2C[C@H](N)C[C@H]2C1=O (stereo not given in full)
